Results from patent US11078216B2, “Bisaryl amides as NRF2 activators” (GLAXOSMITHKLINE INTELLECTUAL PROPERTY DEVELOPMENT LIMITED, priority 2016, dated 2021).

System: NRF2 (NQO1 activity as marker for NRF2 activation), BEAS-2B cells
Experiment: BEAS-2B NQO1 MTT Assay
Format: cell-based
Conditions: Homo sapiens, EC50 of NQO1 specific activity induction, 48 hours incubation, read-out: EC50
From the text: NAD(P)H:quinone oxidoreductase 1 (NQO1), also called DT diaphorase, is a homodimeric FAD-containing enzyme that catalyzes obligatory NAD(P)H-dependent two-electron reductions of quinones and protects cells against the toxic and neoplastic effects of free radicals and reactive oxygen species arising from one-electron reductions. The transcription of NQO1 is finely regulated by NRF2, and thus NQO1 activity is a good marker for NRF2 activation. On day one, frozen BEAS-2B cells (ATCC) are thawed in a water bath, counted, and re-suspended at a concentration of 250,000 cells/mL. Fifty microliters of cells are plated in 384 well black clear-bottomed plates. Plates are incubated at 37° C., 5% CO2 overnight. On day two, plates are centrifuged and 50 nL of compound or controls are added to the cells. Plates are then incubated at 37° C., 5% CO2 for 48 hours. On day four, medium is aspirated from the plate and crude cell lysates are made by adding 13 uL of 1× Cell Signaling Technologies lysis buffer with 1 Complete, Mini, EDTA-free Protease Inhibitor Tablet (Roche) for each 10 mL of lysis buffer. After lysis plates are incubated for 20 minutes at room temperature. Two microliters of lysate are removed for use in Cell Titer Glo assay (Promega) and MTT cocktail is prepared (Prochaska et. al. 1998) for measurement of NQO1 activity. Fifty microliters of MTT cocktail is added to each well, plate is centrifuged, and analyzed on an Envision plate reader (Perkin Elmer) using Absorbance 570 nm label for 30 minutes. Product formation is measured kinetically and the EC50 of NQO1 specific activity induction is calculated by plotting the change in absorbance (Delta OD/min) versus the log of compound concentration followed by 3-parameter fitting.
EC50s<1 nM (+++++), EC50s 1 nM-10 nM (++++), EC50s 10 nM-100 nM (+++), EC50s 100 nM-1 uM (++), EC50s 1-10 uM (+), EC50s>10 uM (−), or were not determined (ND).

Row | SMILES | EC50 [µM]
1 | CC[C@@H]1CN(Cc2cc([C@H](CC(=O)NCC(C)(C)O)c3ccc4c(nnn4CC)c3C)ccc2C)S(=O)(=O)c2cccnc2O1 [Example 27, (S)-3-(3-(((R)-4-Ethyl-1,1-dioxido-3,4-dihydro-2H-pyrido[2,3-b][1,4,5]oxathiazepin-2-yl)methyl)-4-methylphenyl)-3-(1-ethyl-4-methyl-1H-benzo[d][1,2,3]triazol-5-yl)-N-(2-hydroxy-2-methylpropyl)propanamide] | 1 to 10
2 | CC[C@@H]1CN(Cc2cc([C@H](CC(=O)NC(C)C(=O)NC)c3ccc4c(nnn4CC)c3C)ccc2C)S(=O)(=O)c2cccnc2O1 (stereo partly drawn) [Example 28, (3S)-3-(3-(((R)-4-Ethyl-1,1-dioxido-3,4-dihydro-2H-pyrido[2,3-b][1,4,5]oxathiazepin-2-yl)methyl)-4-methylphenyl)-3-(1-ethyl-4-methyl-1H-benzo[d][1,2,3]triazol-5-yl)-N-(1-(methylamino)-1-oxopropan-2-yl)propanamide] | 1 to 10
3 | CC[C@@H]1CN(Cc2cc([C@H](CC(=O)NC3CCCNC3=O)c3ccc4c(nnn4CC)c3C)ccc2C)S(=O)(=O)c2cccnc2O1 (stereo partly drawn) [Example 29, (3S)-3-(3-(((R)-4-Ethyl-1,1-dioxido-3,4-dihydro-2H-pyrido[2,3-b][1,4,5]oxathiazepin-2-yl)methyl)-4-methylphenyl)-3-(1-ethyl-4-methyl-1H-benzo[d][1,2,3]triazol-5-yl)-N-(2-oxopiperidin-3-yl)propanamide] | 1 to 10
4 | CC[C@@H]1CN(Cc2cc([C@H](CC(=O)NCCS(N)(=O)=O)c3ccc4c(nnn4CC)c3C)ccc2C)S(=O)(=O)c2cccnc2O1 [Example 30, (S)-3-(3-(((R)-4-Ethyl-1,1-dioxido-3,4-dihydro-2H-pyrido[2,3-b][1,4,5]oxathiazepin-2-yl)methyl)-4-methylphenyl)-3-(1-ethyl-4-methyl-1H-benzo[d][1,2,3]triazol-5-yl)-N-(2-sulfamoylethyl)propanamide] | 0.1 to 1
5 | CC[C@@H]1CN(Cc2cc([C@H](CC(=O)NC3CC3)c3ccc4c(nnn4CC)c3C)ccc2C)S(=O)(=O)c2cccnc2O1 [Example 31, (S)—N-Cyclopropyl-3-(3-(((R)-4-ethyl-1,1-dioxido-3,4-dihydro-2H-pyrido[2,3-b][1,4,5]oxathiazepin-2-yl)methyl)-4-methylphenyl)-3-(1-ethyl-4-methyl-1H-benzo[d][1,2,3]triazol-5-yl)propanamide] | 0.1 to 1
6 | CC[C@@H]1CN(Cc2cc([C@H](CC(=O)NCCO)c3ccc4c(nnn4CC)c3C)ccc2C)S(=O)(=O)c2cccnc2O1 [Example 32, (S)-3-(3-(((R)-4-Ethyl-1,1-dioxido-3,4-dihydro-2H-pyrido[2,3-b][1,4,5]oxathiazepin-2-yl)methyl)-4-methylphenyl)-3-(1-ethyl-4-methyl-1H-benzo[d][1,2,3]triazol-5-yl)-N-(2-hydroxyethyl)propanamide] | 1 to 10
7 | CC[C@@H]1CN(Cc2cc([C@H](CC(=O)NCCCO)c3ccc4c(nnn4CC)c3C)ccc2C)S(=O)(=O)c2cccnc2O1 [Example 33, (S)-3-(3-(((R)-4-Ethyl-1,1-dioxido-3,4-dihydro-2H-pyrido[2,3-b][1,4,5]oxathiazepin-2-yl)methyl)-4-methylphenyl)-3-(1-ethyl-4-methyl-1H-benzo[d][1,2,3]triazol-5-yl)-N-(3-hydroxypropyl)-propanamide] | 1 to 10
8 | CC[C@@H]1CN(Cc2cc([C@H](CC(=O)NCCCOC)c3ccc4c(nnn4CC)c3C)ccc2C)S(=O)(=O)c2cccnc2O1 [Example 34, (S)-3-(3-(((R)-4-Ethyl-1,1-dioxido-3,4-dihydro-2H-pyrido[2,3-b][1,4,5]oxathiazepin-2-yl)methyl)-4-methylphenyl)-3-(1-ethyl-4-methyl-1H-benzo[d][1,2,3]triazol-5-yl)-N-(3-methoxypropyl)-propanamide] | 1 to 10
9 | CC[C@@H]1CN(Cc2cc([C@H](CC(=O)NCC(N)=O)c3ccc4c(nnn4CC)c3C)ccc2C)S(=O)(=O)c2cccnc2O1 [Example 35, (S)—N-(2-Amino-2-oxoethyl)-3-(3-(((R)-4-ethyl-1,1-dioxido-3,4-dihydro-2H-pyrido[2,3-b][1,4,5]oxathiazepin-2-yl)methyl)-4-methylphenyl)-3-(1-ethyl-4-methyl-1H-benzo[d][1,2,3]triazol-5-yl)propanamide] | 1 to 10
10 | CC[C@@H]1CN(Cc2cc([C@H](CC(=O)NCCNC)c3ccc4c(nnn4CC)c3C)ccc2C)S(=O)(=O)c2cccnc2O1 [Example 36, (S)-3-(3-(((R)-4-Ethyl-1,1-dioxido-3,4-dihydro-2H-pyrido[2,3-b][1,4,5]oxathiazepin-2-yl)methyl)-4-methylphenyl)-3-(1-ethyl-4-methyl-1H-benzo[d]-[1,2,3]triazol-5-yl)-N-(2-(methylamino)ethyl)propanamide] | 0.1 to 1
11 | CC[C@@H]1CN(Cc2cc([C@H](CC(=O)NCC3CCCO3)c3ccc4c(nnn4CC)c3C)ccc2C)S(=O)(=O)c2cccnc2O1 (stereo partly drawn) [Example 37, (3S)-3-(3-(((R)-4-Ethyl-1,1-dioxido-3,4-dihydro-2H-pyrido[2,3-b][1,4,5]oxathiazepin-2-yl)methyl)-4-methylphenyl)-3-(1-ethyl-4-methyl-1H-benzo[d][1,2,3]triazol-5-yl)-N-((tetrahydrofuran-2-yl)methyl)propanamide] | 0.1 to 1
12 | CC[C@@H]1CN(Cc2cc([C@H](CC(=O)NCCF)c3ccc4c(nnn4CC)c3C)ccc2C)S(=O)(=O)c2cccnc2O1 [Example 38, (S)-3-(3-(((R)-4-Ethyl-1,1-dioxido-3,4-dihydro-2H-pyrido[2,3-b][1,4,5]oxathiazepin-2-yl)methyl)-4-methylphenyl)-3-(1-ethyl-4-methyl-1H-benzo[d][1,2,3]triazol-5-yl)-N-(2-fluoroethyl)propanamide] | 0.1 to 1
13 | CC[C@@H]1CN(Cc2cc([C@H](CC(=O)NCC(=O)NC)c3ccc4c(nnn4CC)c3C)ccc2C)S(=O)(=O)c2cccnc2O1 [Example 39, (S)-3-(3-(((R)-4-Ethyl-1,1-dioxido-3,4-dihydro-2H-pyrido[2,3-b][1,4,5]oxathiazepin-2-yl)methyl)-4-methylphenyl)-3-(1-ethyl-4-methyl-1H-benzo[d][1,2,3]triazol-5-yl)-N-(2-(methylamino)-2-oxoethyl)propanamide] | 1 to 10
14 | CCOCCNC(=O)C[C@@H](c1ccc(C)c(CN2C[C@@H](CC)Oc3ncccc3S2(=O)=O)c1)c1ccc2c(nnn2CC)c1C [Example 40, (S)-N-(2-Ethoxyethyl)-3-(3-(((R)-4-ethyl-1,1-dioxido-3,4-dihydro-2H-pyrido[2,3-b][1,4,5]oxathiazepin-2-yl)methyl)-4-methylphenyl)-3-(1-ethyl-4-methyl-1H-benzo[d][1,2,3]triazol-5-yl)propanamide] | 0.1 to 1
15 | CC[C@@H]1CN(Cc2cc([C@H](CC(=O)NCCOC)c3ccc4c(nnn4CC)c3C)ccc2C)S(=O)(=O)c2cccnc2O1 [Example 41, (S)-3-(3-(((R)-4-Ethyl-1,1-dioxido-3,4-dihydro-2H-pyrido[2,3-b][1,4,5]oxathiazepin-2-yl)methyl)-4-methylphenyl)-3-(1-ethyl-4-methyl-1H-benzo[d][1,2,3]triazol-5-yl)-N-(2-methoxyethyl)propanamide] | 0.1 to 1
16 | CC[C@@H]1CN(Cc2cc([C@H](CC(=O)NCC(=O)NC(C)C)c3ccc4c(nnn4CC)c3C)ccc2C)S(=O)(=O)c2cccnc2O1 [Example 42, (S)-3-(3-(((R)-4-Ethyl-1,1-dioxido-3,4-dihydro-2H-pyrido[2,3-b][1,4,5]oxathiazepin-2-yl)methyl)-4-methylphenyl)-3-(1-ethyl-4-methyl-1H-benzo[d][1,2,3]triazol-5-yl)-N-(2-(isopropylamino)-2-oxoethyl)propanamide] | 1 to 10
17 | CC[C@@H]1CN(Cc2cc([C@H](CC(=O)NC(C)C(N)=O)c3ccc4c(nnn4CC)c3C)ccc2C)S(=O)(=O)c2cccnc2O1 (stereo partly drawn) [Example 43, (3S)—N-(1-Amino-1-oxopropan-2-yl)-3-(3-(((R)-4-ethyl-1,1-dioxido-3,4-dihydro-2H-pyrido[2,3-b][1,4,5]oxathiazepin-2-yl)methyl)-4-methylphenyl)-3-(1-ethyl-4-methyl-1H-benzo[d][1,2,3]triazol-5-yl)propanamide] | 0.1 to 1
18 | CC[C@@H]1CN(Cc2cc([C@H](CC(=O)NCCCC#N)c3ccc4c(nnn4CC)c3C)ccc2C)S(=O)(=O)c2cccnc2O1 [Example 44, (S)-N-(3-Cyanopropyl)-3-(3-(((R)-4-ethyl-1,1-dioxido-3,4-dihydro-2H-pyrido[2,3-b][1,4,5]oxathiazepin-2-yl)methyl)-4-methylphenyl)-3-(1-ethyl-4-methyl-1H-benzo[d][1,2,3]triazol-5-yl)propanamide] | 0.1 to 1
